In ChEMBL document CHEMBL4825678, “Oshimalides A and B, Sesterterpenes of the Manoalide Class from a Luffariella sp. Deep-Sea Marine Sponge: Application of Asymmetric Dihydroxylation in Structure Elucidation” (2021) one finds MIC data, which are given here for one molecule.

Converted amounts (≈) assume the structure as drawn.

The assay deals with Staphylococcus aureus. Description: Antimicrobial activity against staphylococcus aureus 209P JC-1 incubated for 20 hrs by agar dilution method. Type of assay: functional. (In agar dilution the substance is mixed into plates at graded concentrations.)

In the case of `CC1=CC(=O)C[C@@H](C)[C@@]1(C)CC/C(C)=C/CCC1=CC[C@H](C2=CC(=O)OC2)OC1`, the lowest concentration to inhibit growth (MIC) was 51 µg/mL (≈ 128 µM).
